Measurements as given in EP2818471A1, “Nitrogen bicyclic compounds as inhibitors for Scyl1 and Grk5” (Max-Planck-Gesellschaft zur Förderung der Wissenschaften …, priority 2013, dated 2014).

System: beta-TC6 cells
Assay: Insulin HTRF assay, relative activity Ar normalized to sunitinib
Assay type: cell-based
Conditions: Mus musculus, normalized to positive control sunitinib (5 µM = 100%), Table 10
Text: For further screening of compounds derived from compounds described above for their ability to regulate insulin release an insulin HTRF® (Homogeneous Time-Resolved Fluorescence; Cisbio International, France) was used. This assay is based on two antibodies against insulin binding to different epitopes of insulin. One of these antibodies is coupled to Europium (Ab-Eu-Cryptate) and the other one to the fluorophore XL665 (Ab-XL665). Is insulin secreted into the supernatant of cell culture both antibodies can bind to insulin and come therefore into close proximity which allows upon excitation that energy transfer between (FRET) the long-life fluorescent donor Europium (cryptate) and the acceptors XL665. FRET increases proportionally with insulin concentration.
The automated assay protocol is as follows: • On day 1 15k beta-TC6 cells per well were seeded for 24 or 48 h in 50 µl complete medium. On day 2 or respective on day 3 the medium is removed and cells are washed with 60 µl 1xPBS and 20 µl induction buffer is added using BioTek washer. Subsequently, 10 µl Sunitininb (5 µM f.c.) or the test compound in induction buffer; 0.5% f.c. DMSO (CyBi-well) is transferred to the cells. The cells are then incubated at 37°C for 2, 3, 4h.
The HTRF assay is carried out using Greiner 384-well 784075 assay plates. First 10 µl supernatant is transferred from the cell plates in HTRF plates (CyBi-well). 10 µl of 0, 1, 2, and 4 ng/ml Insulin standard controls in assay medium is used as a control. To each well 10 µl of combined 1:25 Ab-XL665 (Acc) and 1:20 Ab-Eu-Cryptate (WellMate) are added and incubated for 120 min at RT in the dark. Finally HTRF is measured on ViewLux ultra high throughput microplate imager (PerkinElmer).
The evaluation software DataFactoty derives relative activities Ar according to the following equation: Ar = (V-R(0%control))/(R(100%control) -R(0%control)) × 100 [formula] […]
The activity of the compounds was classified according to their Ar (relative activity) into the following ranges: Ar ≥ 100% + + + +; 50% ≤ Ar < 100% + + +; 20% ≤ Ar < 50% + +; 10% < Ar < 20% + [formula] Table 10. Ar (relative activity) values of inventive compounds

Q: `CC(C)[C@@H](CO)Nc1ccc2ncc(-c3ccc(N)cc3)n2n1` [compound 5, (2S)-2-[[3-(4-aminophenyl)imidazo[1,2-b]pyridazin-6-yl]amino]-3-methyl-butan-1-ol] was tested. Which Emax did it give?
A: 50 to 100%

Q: `COc1ccc(-c2cnc3ccc(NCc4cccs4)nn23)c(OC)c1` [compound 6, 3-(2,4-dimethoxyphenyl)-N-(2-thienylmethyl)imidazo[1,2-b]pyridazin-6-amine] was tested. Which Emax did it give?
A: 20 to 50%

Q: `COCCNc1ccc2ncc(-c3ccc(C(=O)Nc4ccc(OC)cc4)cc3)n2n1` [compound 7, 4-[6-(2-methoxyethylamino)imidazo[1,2-b]pyridazin-3-yl]-N-(4-methoxyphenyl)benzamide] was tested. Which Emax did it give?
A: 20 to 50%

Q: With `CCC(CO)Nc1ccc2ncc(-c3ccccc3Cl)n2n1` (stereo not drawn) [compound 9, 2-[[3-(2-chlorophenyl)imidazo[1,2-b]pyridazin-6-yl]amino]butan-1-ol] as the compound, how does the Emax read?
A: 10 to 20%

Q: `COc1cc(-c2cnc3ccc(NCc4cccc(Cl)c4)nn23)ccc1O` [compound 16, 4-[6-[(3-chlorophenyl)methylamino]imidazo[1,2-b]pyridazin-3-yl]-2-methoxy-phenol] was tested. Which Emax did it give?
A: 20 to 50%

Q: How did the Emax turn out when `CC(=O)Nc1cccc(-c2cnc3ccc(NCc4ccc(F)cc4)nn23)c1` [compound 19, N-[3-[6-[(4-fluorophenyl)methylamino]imidazo[1,2-b]pyridazin-3-yl]phenyl]acetamide] was run?
A: 10 to 20%

Q: For `CCCNc1ccc2ncc(-c3ccc(C(=O)O)cc3)n2n1` [compound 20, 4-[6-(propylamino)imidazo[1,2-b]pyridazin-3-yl]benzoic acid], which Emax is on record?
A: 10 to 20%

Q: `CCCNc1ccc2ncc(-c3cccc(/C=C/C(=O)O)c3)n2n1` [compound 21, (E)-3-[3-[6-(propylamino)imidazo[1,2-b]pyridazin-3-yl]phenyl]prop-2-enoic acid] was tested. Which Emax did it give?
A: 10 to 20%

Q: Which Emax does the source give for `c1cncc(CCNc2ccc3ncc(-c4ccc(N5CCOCC5)cc4)n3n2)c1` [compound 24, 3-(4-morpholinophenyl)-N-[2-(3-pyridyl)ethyl]imidazo[1,2-b]pyridazin-6-amine] here?
A: 50 to 100%

Q: With `c1cncc(CCNc2ccc3ncc(-c4ccc5ccccc5c4)n3n2)c1` [compound 25, 3-(2-naphthyl)-N-[2-(3-pyridyl)ethyl]imidazo[1,2-b]pyridazin-6-amine] as the compound, how does the Emax read?
A: 10 to 20%

Q: How did the Emax turn out when `c1cc2c(cc1CNc1ccc3ncc(-c4ccc(N5CCOCC5)cc4)n3n1)OCO2` [compound 26, N-(1,3-benzodioxol-5-ylmethyl)-3-(4-morpholinophenyl)imidazo[1,2-b]pyridazin-6-amine] was run?
A: 20 to 50%

Q: Which Emax does the source give for `OC1CCC(Nc2ccc3ncc(Br)n3n2)CC1` (stereo not drawn) [compound 32, 4-[(3-bromoimidazo[1,2-b]pyridazin-6-yl)amino]cyclohexanol] here?
A: 10 to 20%

Q: `Nc1cccc(-c2cnc3ccc(NC4CCOCC4)nn23)c1` [compound 33, 3-(3-aminophenyl)-N-tetrahydropyran-4-yl-imidazo[1,2-b]pyridazin-6-amine] was tested. Which Emax did it give?
A: 20 to 50%

Q: How did the Emax turn out when `COc1ccc(CNc2ccc3ncc(-c4ccc(O)cc4)n3n2)cc1` [compound 36, 4-[6-[(4-methoxyphenyl)methylamino]imidazo[1,2-b]pyridazin-3-yl]phenol] was run?
A: 20 to 50%

Q: For `COc1ccc(CNc2ccc3ncc(-c4ccc5[nH]ccc5c4)n3n2)cc1` [compound 37, 3-(1H-indol-5-yl)-N-[(4-methoxyphenyl)methyl]imidazo[1,2-b]pyridazin-6-amine], which Emax is on record?
A: 20 to 50%

Q: For `COc1ccc(CNc2ccc3ncc(-c4ccc(OC)cc4OC)n3n2)cc1` [compound 39, 3-(2,4-dimethoxyphenyl)-N-[(4-methoxyphenyl)methyl]imidazo[1,2-b]pyridazin-6-amine], which Emax is on record?
A: 10 to 20%

Q: `COc1ccc(-c2cnc3ccc(NCCCO)nn23)cc1` [compound 41, 3-[[3-(4-methoxyphenyl)imidazo[1,2-b]pyridazin-6-yl]amino]propan-1-ol] was tested. Which Emax did it give?
A: 10 to 20%

Q: Which Emax does the source give for `COc1ccc(-c2cnc3ccc(NCCCO)nn23)c(OC)c1` [compound 42, 3-[[3-(2,4-dimethoxyphenyl)imidazo[1,2-b]pyridazin-6-yl]amino]propan-1-ol] here?
A: 10 to 20%
